{"source": "paper PMC9606171", "about": "“Synthetic PPAR Agonist DTMB Alleviates Alzheimer’s Disease Pathology by Inhibition of Chronic Microglial Inflammation in 5xFAD Mice” (Neurotherapeutics, 2022)", "key": {"[1]": {"test": "Pharmacokinetics and brain distribution after oral administration", "type": "in vivo, C57BL/6 mice", "settings": "male, C57BL/6, mouse, mice; for Kp: brain / plasma, po, 50 mg/kg", "method": "To investigate the pharmacokinetics and brain distribution of DTMB, fifty-six male C57BL/6 mice (22–26 g) were fasted with water ad libitum for 16 h before oral administration of DTMB and randomly divided into seven groups (n=8 per each sampling time point). Mice were administered with a DTMB suspension in 1% carboxymethylcellulose at a dose of 50 mg/kg via oral gavage, and blood samples (approximately 0.1 mL) were collected at 0, 0.16, 0.5, 1, 4, 8, and 24 h via the abdominal artery. Subsequently, whole brain tissues were isolated, weighed, and homogenized with two volume of ice-cold 80% methanol solution using a tissue grinder. Blood samples were centrifuged at 12,000 g for 1 min to separate plasma. Aliquots of plasma (30 µL) and brain homogenate (50 µL) samples were stored at − 80 °C until analysis. Concentrations of DTMB in plasma and brain homogenate samples were analyzed using an Agilent 6470 triple quadrupole liquid chromatography-mass spectrometry (LC–MS/MS) system (Agilent, Wilmington, DE, USA). Aliquots of plasma (30 µL each) and brain homogenate (50 µL each) were added to 100 μL of internal standard solution (IS; berberin 0.1 ng/mL in methanol) and vigorously mixed for 5 min. After centrifugation at 16,000 g for 10 min, a 5 µL aliquot of the supernatant was injected into the LC–MS/MS system. DTMB was separated on a Synergi Polar RP column (2.0 × 150 mm, 4 μm particle size; Phenomenex, Torrence, CA, USA) using an isocratic mobile phase consisting of 10 mM ammonium formate buffer (10%) and methanol (90%) containing 0.1% formic acid at a flow rate of 0.25 mL/min. Quantification of the analyte peaks was carried out at m/z 513.2 → 283.0 for DTMB (TR (retention time) 4.7 min) and m/z 336.1 → 320.0 for berberine (TR 2.9 min) in a […] ionization mode with optimized fragmentor of 135 V and collision energy of 25 or 30 eV, respectively. The pharmacokinetic parameters of DTMB in the plasma and brain were determined by the non-compartmental analysis (WinNonlin® 5.1; Pharsight, Mountain View, CA, USA). Elimination half-life (T1/2) was calculated from the elimination coefficient (K) of DTMB concentrations. Cmax indicated the maximum plasma concentrations and Tmax indicated time to reach Cmax. AUClast and AUCinf were calculated from the area under plasma concentrations curve from zero to the last time point and to infinity, respectively."}, "[2]": {"tested_on": "RAW 264.7", "test": "Cell viability assay (MTT), RAW 264.7", "type": "cell-based", "settings": "48 h", "method": "Cell viability was measured by chromogenic assay involving the biological reduction of 3-(4,5-dimethyl-thiazol-2-yl)-2,5-diphenyltetrazoliumbromide (MTT) to formazan in living cells. Briefly, cells were seeded in 96-well plates in a final volume of 100 μL. After 24 h, the culture media were replaced with fresh media containing DTMB compounds, and the cells were cultured for another 48 h. Next, MTT (5 mg/mL in PBS) was added to the culture medium. The cells were incubated for 1 h in the dark at 37 °C, and the supernatant was then removed from the well. Total MTT solvent (4 mM HCl and 0.1% Nonidet P-40, both in isopropanol) was added to dissolve the formazan crystal, and absorbance was measured at 570 nm using a microplate reader Infinite 200 Pro NanoQuant microplate reader (TECAN, Switzerland)."}}, "note": "Like-named read-outs stand apart in the source and are kept apart here.", "data": [{"smiles": "COc1ccc(-c2cc(=O)oc3c(C)c(OC(=O)[C@H](Cc4c[nH]c5ccccc45)NC(=O)OC(C)(C)C)ccc23)cc1", "note": "[DTMB]", "values": [{"measurement": "Kp", "setting": "[1]; oral, plasma concentration range 0.63–66.9 ng/mL, read-out: mean brain DTMB concentration ratio over the plasma DTMB ([Brain]/[Plasma])", "value": 2.69}, {"measurement": "Kp", "setting": "[1]; printed in the Brain column, 50 mg/kg oral, read-out: AUC ratio", "value": 3.53}, {"measurement": "Tmax", "setting": "[1]; Brain, 50 mg/kg oral", "value": "0.94 ± 0.18", "unit": "h"}, {"measurement": "half-life", "setting": "[1]; Brain, 50 mg/kg oral", "value": "4.41 ± 1.11", "unit": "h"}, {"measurement": "Tmax", "setting": "[1]; Plasma, 50 mg/kg oral", "value": "0.75 ± 0.27", "unit": "h"}, {"measurement": "half-life", "setting": "[1]; Plasma, 50 mg/kg oral", "value": "1.64 ± 0.27", "unit": "h"}, {"measurement": "cytotoxicity (MTT)", "setting": "[2]", "value": "no cytotoxicity"}]}]}
